Test results: publication PMC9250534, “Synthesis and direct assay of large macrocycle diversities by combinatorial late-stage modification at picomole scale” (Nature Communications, 2022)

molecular target: MDM2 (Homo sapiens, UniProt Q00987); assay: MDM2 binding screen of Libraries 3 and 4: displacement of fluorescent probe F-M8 at 750 nM macrocycle; details: Panel b, Library 3: 63 scaffolds combinatorially acylated with 15 carboxylic acids at 30 picomole scale; displacement of fluorescent peptide probe; macrocycle 750 nM
Sequence (Q00987 whole entry): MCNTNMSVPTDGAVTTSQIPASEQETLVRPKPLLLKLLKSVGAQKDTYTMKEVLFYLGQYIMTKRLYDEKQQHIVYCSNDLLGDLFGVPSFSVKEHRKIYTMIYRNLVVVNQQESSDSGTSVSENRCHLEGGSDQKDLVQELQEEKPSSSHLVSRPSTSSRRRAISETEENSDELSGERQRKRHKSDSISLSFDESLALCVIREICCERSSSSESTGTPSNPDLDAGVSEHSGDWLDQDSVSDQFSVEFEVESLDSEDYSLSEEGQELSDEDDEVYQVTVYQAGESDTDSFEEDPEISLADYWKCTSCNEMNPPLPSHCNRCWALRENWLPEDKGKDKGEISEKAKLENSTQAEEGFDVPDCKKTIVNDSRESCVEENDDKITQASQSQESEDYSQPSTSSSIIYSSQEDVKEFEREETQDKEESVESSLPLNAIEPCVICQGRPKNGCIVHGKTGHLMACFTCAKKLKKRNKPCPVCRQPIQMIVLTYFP
Outline: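 Competition with nutlin-3a was run using the fluorescein conjugate. Library members came from scaffolds reacted 6 h at room temperature with carboxylic acids (20 equiv.), HBTU and DABCO in DMSO. Quenching was overnight in Tris-Cl pH 7.4 buffer with 0.01% Tween20.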

Row | fraction of fluorescent probe displaced | SMILES
1 | -0.012 | O=C(NC[C@@H]1NC(=O)[C@@H]2CN(CCO2)C(=O)CCSSCCNC(=O)[C@@H](Cc2c[nH]c3ccccc23)NC1=O)c1ccc(Cl)cc1 [X-Cop-Dap-D-Trp + Acid 25]
2 | 0.028 | O=C(/C=C/c1ccc2ccccc2c1)NC[C@@H]1NC(=O)[C@@H]2CN(CCO2)C(=O)CCSSCCNC(=O)[C@@H](Cc2c[nH]c3ccccc23)NC1=O [X-Cop-Dap-D-Trp + Acid 112]
3 | 0.021 | O=C(CCS(=O)(=O)c1ccccc1)NC[C@@H]1NC(=O)[C@@H]2CN(CCO2)C(=O)CCSSCCNC(=O)[C@@H](Cc2c[nH]c3ccccc23)NC1=O [X-Cop-Dap-D-Trp + Acid 114]
4 | 0.008 | O=C(NC[C@@H]1NC(=O)[C@@H]2CN(CCO2)C(=O)CCSSCCNC(=O)[C@@H](Cc2c[nH]c3ccccc23)NC1=O)C1COc2ccccc2O1 (stereo partly drawn) [X-Cop-Dap-D-Trp + Acid 115]
5 | 0.00133 | Cn1cc(C[C@@H]2NC(=O)[C@H](CNC(=O)c3ccc(Cl)s3)NC(=O)[C@@H]3CN(CCO3)C(=O)CCSSCCNC2=O)c2ccccc21 [X-Cop-Dap-Me-Trp + Acid 14]
6 | 0.015 | Cn1cc(C[C@@H]2NC(=O)[C@H](CNC(=O)c3ccc(Cl)cc3)NC(=O)[C@@H]3CN(CCO3)C(=O)CCSSCCNC2=O)c2ccccc21 [X-Cop-Dap-Me-Trp + Acid 25]
7 | 0.015 | Cn1cc(C[C@@H]2NC(=O)[C@H](CNC(=O)C3COc4ccccc4O3)NC(=O)[C@@H]3CN(CCO3)C(=O)CCSSCCNC2=O)c2ccccc21 (stereo partly drawn) [X-Cop-Dap-Me-Trp + Acid 115]
8 | 0.028 | CN1C(=O)[C@H](CNC(=O)c2ccc(Cl)s2)NC(=O)[C@@H]2CN(CCO2)C(=O)CCSSCCNC(=O)[C@@H]1Cc1c[nH]c2ccccc12 [X-Cop-Dap-NMe-Trp + Acid 14]
9 | -0.00533 | CN1C(=O)[C@H](CNC(=O)c2ccc(Cl)cc2)NC(=O)[C@@H]2CN(CCO2)C(=O)CCSSCCNC(=O)[C@@H]1Cc1c[nH]c2ccccc12 [X-Cop-Dap-NMe-Trp + Acid 25]
10 | 0.018 | CN1C(=O)C(CNC(=O)C2CC2c2ccccc2)NC(=O)C2CN(CCO2)C(=O)CCSSCCNC(=O)C1Cc1c[nH]c2ccccc12 (stereo not drawn) [X-Cop-Dap-NMe-Trp + Acid 105]
11 | 0.011 | CN1C(=O)C(CNC(=O)c2ccc3ccccc3c2)NC(=O)C2CN(CCO2)C(=O)CCSSCCNC(=O)C1Cc1c[nH]c2ccccc12 (stereo not drawn) [X-Cop-Dap-NMe-Trp + Acid 107]
12 | 0.041 | O=C(NCC1NC(=O)C2CN(CCO2)C(=O)CCSSCCNC(=O)C(Cc2c[nH]c3ccccc23)NC1=O)c1ccc(Cl)cc1 (stereo not drawn) [X-Cop-Dap-Trp + Acid 25]

Further lines, the molecule ahead of its results:

Row | SMILES | fraction of fluorescent probe displaced
13 | CN1C(=O)[C@@H](CNC(=O)/C=C/c2ccc(Cl)cc2)NC(=O)[C@@H]2CN(CCO2)C(=O)CCSSCCNC(=O)[C@@H]1Cc1c[nH]c2ccccc12 [X-Cop-D-Dap-NMe-Trp + Acid 108] | 0.008
14 | CN1C(=O)[C@@H](CNC(=O)/C=C/c2ccc(OCc3ccccc3)cc2)NC(=O)[C@@H]2CN(CCO2)C(=O)CCSSCCNC(=O)[C@@H]1Cc1c[nH]c2ccccc12 [X-Cop-D-Dap-NMe-Trp + Acid 110] | 0.015
15 | CN1C(=O)C(CNC(=O)c2cccc(Oc3ccccc3)c2)NC(=O)C2CN(CCO2)C(=O)CCSSCCNC(=O)C1Cc1c[nH]c2ccccc12 [X-Cop-D-Dap-NMe-Trp + Acid 111] | 0.00133
16 | CN1C(=O)[C@@H](CNC(=O)/C=C/c2ccc3ccccc3c2)NC(=O)[C@@H]2CN(CCO2)C(=O)CCSSCCNC(=O)[C@@H]1Cc1c[nH]c2ccccc12 [X-Cop-D-Dap-NMe-Trp + Acid 112] | 0.035
17 | O=C(NC[C@H]1NC(=O)[C@@H]2CN(CCO2)C(=O)CCSSCCNC(=O)[C@H](Cc2c[nH]c3ccccc23)NC1=O)c1ccc(Cl)cc1 [X-Cop-D-Dap-Trp + Acid 25] | 0.00133
18 | O=C(C=Cc1ccc(Cl)cc1)NCC1NC(=O)C2CN(CCO2)C(=O)CCSSCCNC(=O)C(Cc2c[nH]c3ccccc23)NC1=O [X-Cop-D-Dap-Trp + Acid 108] | 0.021
19 | O=C(/C=C/c1ccc(OCc2ccccc2)cc1)NC[C@H]1NC(=O)[C@@H]2CN(CCO2)C(=O)CCSSCCNC(=O)[C@H](Cc2c[nH]c3ccccc23)NC1=O [X-Cop-D-Dap-Trp + Acid 110] | -0.00533
20 | O=C(NC[C@H]1NC(=O)[C@@H]2CN(CCO2)C(=O)CCSSCCNC(=O)[C@H](Cc2c[nH]c3ccccc23)NC1=O)c1cccc(Oc2ccccc2)c1 [X-Cop-D-Dap-Trp + Acid 111] | 0.015
21 | O=C(NC[C@H]1NC(=O)[C@@H]2CN(CCO2)C(=O)CCSSCCNC(=O)[C@H](Cc2c[nH]c3ccccc23)NC1=O)C1COc2ccccc2O1 (stereo partly drawn) [X-Cop-D-Dap-Trp + Acid 115] | 0.008
22 | O=C(NC[C@@H]1NC(=O)[C@@H]2CN(CCO2)C(=O)CCSSCCNC(=O)[C@H](Cc2cccc3ccccc23)NC1=O)c1ccc(Cl)s1 [X-Cop-Dap-1-NaI + Acid 14] | 0.008
23 | O=C(NCC1NC(=O)C2CN(CCO2)C(=O)CCSSCCNC(=O)C(Cc2cccc3ccccc23)NC1=O)c1ccc(Cl)cc1 (stereo not drawn) [X-Cop-Dap-1-NaI + Acid 25] | -0.012
24 | O=C(/C=C/c1ccc2ccccc2c1)NC[C@@H]1NC(=O)[C@@H]2CN(CCO2)C(=O)CCSSCCNC(=O)[C@H](Cc2cccc3ccccc23)NC1=O [X-Cop-Dap-1-NaI + Acid 112] | 0.021
25 | O=C(CCS(=O)(=O)c1ccccc1)NC[C@@H]1NC(=O)[C@@H]2CN(CCO2)C(=O)CCSSCCNC(=O)[C@H](Cc2cccc3ccccc23)NC1=O [X-Cop-Dap-1-NaI + Acid 114] | 0.021
26 | O=C(NC[C@@H]1NC(=O)[C@@H]2CN(CCO2)C(=O)CCSSCCNC(=O)[C@H](Cc2ccc3ccccc3c2)NC1=O)c1ccc(Cl)cc1 [X-Cop-Dap-2-Nal + Acid 25] | 0.041
27 | O=C(/C=C/c1ccc(OCc2ccccc2)cc1)NC[C@@H]1NC(=O)[C@@H]2CN(CCO2)C(=O)CCSSCCNC(=O)[C@H](Cc2ccc3ccccc3c2)NC1=O [X-Cop-Dap-2-Nal + Acid 110] | 0.035
28 | O=C(NCC1NC(=O)C2CN(CCO2)C(=O)CCSSCCNC(=O)C(Cc2ccc3ccccc3c2)NC1=O)c1cccc(Oc2ccccc2)c1 (stereo not drawn) [X-Cop-Dap-2-Nal + Acid 111] | 0.008
29 | O=C(CCS(=O)(=O)c1ccccc1)NC[C@@H]1NC(=O)[C@@H]2CN(CCO2)C(=O)CCSSCCNC(=O)[C@H](Cc2ccc3ccccc3c2)NC1=O [X-Cop-Dap-2-Nal + Acid 114] | -0.00533
30 | O=C(NC[C@@H]1NC(=O)[C@@H]2CN(CCO2)C(=O)CCSSCCNC(=O)[C@H](Cc2c[nH]c3cc(Cl)ccc23)NC1=O)c1ccc(Cl)s1 [X-Cop-Dap-Cl-Trp + Acid 14] | 0.128
31 | O=C(NCC1NC(=O)C2CN(CCO2)C(=O)CCSSCCNC(=O)C(Cc2c[nH]c3cc(Cl)ccc23)NC1=O)c1ccc(Cl)cc1 (stereo not drawn) [X-Cop-Dap-Cl-Trp + Acid 25] | 0.088
32 | O=C(C=Cc1ccncc1)NCC1NC(=O)C2CN(CCO2)C(=O)CCSSCCNC(=O)C(Cc2c[nH]c3cc(Cl)ccc23)NC1=O (stereo not drawn) [X-Cop-Dap-Cl-Trp + Acid 106] | 0.284
33 | O=C(NC[C@@H]1NC(=O)[C@@H]2CN(CCO2)C(=O)CCSSCCNC(=O)[C@H](Cc2c[nH]c3cc(Cl)ccc23)NC1=O)c1ccc2ccccc2c1 [X-Cop-Dap-Cl-Trp + Acid 107] | 0.102
34 | O=C(C=Cc1ccc(Cl)cc1)NCC1NC(=O)C2CN(CCO2)C(=O)CCSSCCNC(=O)C(Cc2c[nH]c3cc(Cl)ccc23)NC1=O (stereo not drawn) [X-Cop-Dap-Cl-Trp + Acid 108] | 0.075
35 | O=C(/C=C/c1ccc(OCc2ccccc2)cc1)NC[C@@H]1NC(=O)[C@@H]2CN(CCO2)C(=O)CCSSCCNC(=O)[C@H](Cc2c[nH]c3cc(Cl)ccc23)NC1=O [X-Cop-Dap-Cl-Trp + Acid 110] | 0.021
36 | O=C(CCS(=O)(=O)c1ccccc1)NC[C@@H]1NC(=O)[C@@H]2CN(CCO2)C(=O)CCSSCCNC(=O)[C@H](Cc2c[nH]c3cc(Cl)ccc23)NC1=O [X-Cop-Dap-Cl-Trp + Acid 114] | -0.039

same assay, conditions: Panel c, Library 4: best nine scaffolds and 15 additional carboxylic acids; displacement of fluorescent probe

Row | fraction of fluorescent probe displaced | SMILES
37 | 0.085 | CC(C)c1ccc(/C=C/C(=O)NC[C@@H]2NC(=O)[C@@H]3CN(CCO3)C(=O)CCSSCCNC(=O)[C@H](Cc3c[nH]c4cc(Cl)ccc34)NC2=O)cc1 [X-Cop-Dap-Cl-Trp + Acid 127]
38 | 0.052 | CCOc1ccc(C=CC(=O)NCC2NC(=O)C3CN(CCO3)C(=O)CCSSCCNC(=O)C(Cc3cn(C)c4ccccc34)NC2=O)cc1 (stereo not drawn) [X-Cop-Dap-Me-Trp + Acid 117]
39 | 0.028 | CCCOc1ccc(C=CC(=O)NCC2NC(=O)C3CN(CCO3)C(=O)CCSSCCNC(=O)C(Cc3cn(C)c4ccccc34)NC2=O)cc1 (stereo not drawn) [X-Cop-Dap-Me-Trp + Acid 118]
40 | -0.037 | CC(=Cc1ccccc1)C(=O)NCC1NC(=O)C2CN(CCO2)C(=O)CCSSCCNC(=O)C(Cc2cn(C)c3ccccc23)NC1=O (stereo not drawn) [X-Cop-Dap-Me-Trp + Acid 123]

More lines, now with the values behind:

Row | SMILES | fraction of fluorescent probe displaced
41 | CCOc1ccc(/C=C/C(=O)NC[C@@H]2NC(=O)[C@@H]3CN(CCO3)C(=O)CCSSCCNC(=O)[C@H](Cc3c[nH]c4cc(Cl)ccc34)NC2=O)cc1 [X-Cop-Dap-Cl-Trp + Acid 117] | 0.175
42 | O=C(/C=C/c1ccc(Cl)c(Cl)c1)NC[C@@H]1NC(=O)[C@@H]2CN(CCO2)C(=O)CCSSCCNC(=O)[C@H](Cc2c[nH]c3cc(Cl)ccc23)NC1=O [X-Cop-Dap-Cl-Trp + Acid 119] | 0.126
43 | C/C(=C\c1ccccc1)C(=O)NC[C@@H]1NC(=O)[C@@H]2CN(CCO2)C(=O)CCSSCCNC(=O)[C@H](Cc2c[nH]c3cc(Cl)ccc23)NC1=O [X-Cop-Dap-Cl-Trp + Acid 123] | 0.012
